Measured values published in PubChem BioAssay (NCI).
Values joined by “and” are separate entries in the source; they are usually repeats but may differ in a detail not shown here. Equal values may be shown once.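 96-well plates; 48 h exposure; 5 concentrations. Endpoints by linear interpolation between flanking doses. Not reached: highest tested concentration assigned. GI50 marks 50% less growth. TGI denotes the concentration required for complete inhibition of growth.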

Columns and labels:
Assay in all cases: NCI tumour cell line growth inhibition, 48 h
SN12C renal = tested on: SN12C renal
NCI-H460 lung = tested on: NCI-H460 lung
SK-MEL-2 melanoma = tested on: SK-MEL-2 melanoma
HOP-92 NSCLC = tested on: HOP-92 NSCLC
SNB-75 CNS = tested on: SNB-75 CNS
OVCAR-4 ovarian = tested on: OVCAR-4 ovarian
NCI/ADR-RES ovarian = tested on: NCI/ADR-RES ovarian
HL-60(TB) leukemia = tested on: HL-60(TB) leukemia
UACC-62 melanoma = tested on: UACC-62 melanoma
HS 578T breast = tested on: HS 578T breast

SMILES | GI50 (SN12C renal) [µM] | TGI (SN12C renal) | GI50 (NCI-H460 lung) [µM] | TGI (NCI-H460 lung) | GI50 (SK-MEL-2 melanoma) [µM] | TGI (SK-MEL-2 melanoma) [µM] | GI50 (HOP-92 NSCLC) [µM] | TGI (HOP-92 NSCLC) [µM] | GI50 (SNB-75 CNS) [µM] | TGI (SNB-75 CNS) | GI50 (OVCAR-4 ovarian) [µM] | TGI (OVCAR-4 ovarian) | GI50 (NCI/ADR-RES ovarian) [µM] | TGI (NCI/ADR-RES ovarian) [µM] | GI50 (HL-60(TB) leukemia) [µM] | TGI (HL-60(TB) leukemia) [µM] | GI50 (UACC-62 melanoma) [µM] | TGI (UACC-62 melanoma) [µM] | TGI (HS 578T breast) [µM] | GI50 (HS 578T breast) [µM]
C=C(c1ccc(C(=O)NCCCn2ccnc2)cc1)c1cc2c(cc1C)C(C)(C)CCC2(C)C | < 0.0195 | 10.8 µM | 0.87 | 10.5 µM | 2.71 | 7.33 | 1.62 | 7.26 | 2.46 | 7.82 µM | 4.1 | 26 µM | 0.0807 | > 36.1 | 1.06 | 3.93 | 1.67 | 3.92 |  | 
CC(=O)O[C@H]1C(=O)[C@@]2(C)C([C@H](OC(=O)c3ccccc3)[C@]3(O)C[C@H](OC(=O)[C@H](O)[C@@H](NC(=O)c4ccc(Cl)cc4)c4ccccc4)C(C)=C1C3(C)C)C1(OC(C)=O)CO[C@@H]1C[C@@H]2O (some centres undefined) | 0.0166 | 25 µM and 83.2 µM |  | 25 µM and > 100 µM |  |  |  |  |  | 0.603 µM and 0.178 µM | 4.89 | 25 µM and 68 µM |  | 25 |  | 0.00466 |  | 0.178 | 0.185 | 
COc1ccc(/C(C#N)=C2/O/C(=N/N)C(c3ccc(OC)c(OC)c3)C2=O)cc1OC (centres undefined) |  | > 100 µM |  |  |  | > 100 |  | > 100 |  | > 100 µM |  |  |  |  |  | > 100 |  | > 100 |  | 
Cc1ncc([N+](=O)[O-])n1CCOc1ccc(C(=O)/C=C/c2ccc(C(F)(F)F)cc2)cc1 | 3.03 | 11.6 µM | 4.09 | 15 µM | 3.43 | 13.6 |  |  | 2.57 | 12.8 µM | 2.99 | 14.6 µM | 2.76 | 9.29 | 2.91 | 11.4 | 4.73 | 17.6 | 33.3 | 5.2
O=C(N[C@H]1CC2(C=C(I)C(=O)C(I)=C2)OC1=O)OCc1ccccc1 |  | 32.3 µM |  | 43 µM |  |  |  |  |  | 38.2 µM |  | 33.5 µM |  |  |  | 21.4 |  | 30.2 |  | 
O=C(Cc1csc2nc(-c3ccc(Br)cc3)cn12)N/N=C/c1ccccc1O | 3.34 | 16 µM | 15.7 | > 100 µM | 21.1 | 53.8 | 2.1 | 14.6 | 13 | 32 µM |  |  | 2.53 | 6.83 |  |  | 2.09 | 7.28 | 42.3 | 13.4
Clc1cc(Cl)cc(Nc2ccc3c(OCCCN4CCOCC4)cccc3n2)c1 | 10.8 | 26.8 µM | 2.42 | 5.86 µM | 3.45 | 9.51 | 2.03 | 6.94 |  |  | 10.3 | 22.2 µM | 2.88 | 9.29 | 2.11 | 6.34 | 2.01 | 4.57 | 8.14 | 2.51
Cc1cccc(NC(=O)CSc2nnc(-c3ccc(N=Cc4ccc(Cl)cc4)cc3)o2)c1 |  | > 100 µM |  | > 100 µM |  | > 100 |  |  |  | > 100 µM |  | > 100 µM |  |  |  | > 100 |  | > 100 |  | 
